In the NIST ThermoML archive (doi:10.1016/j.tca.2015.12.011):

Experiment: excess molar enthalpy (molar enthalpy of mixing); xn = mol fraction of the nth substance listed
Settings: 100 kPa, Liquid, Calvet calorimetry

[Li] [lithium] + [Ga]
Settings	excess molar enthalpy [kcal/mol]
891 K, x1 = 0.7508	-4.11
993 K, x1 = 0.1014	-1.39
993 K, x1 = 0.2531	-3.23
1018 K, x1 = 0.7505	-3.9
1044 K, x1 = 0.4035	-4.64
1044 K, x1 = 0.5023	-5.04
1044 K, x1 = 0.6005	-5.04
